The values below come from the Kinase Knowledgebase extract (Sharma et al. 2016).

pIC50: −log10 of the molar value.

In the experiment the target is PIK3CA (human) (UniProt P42336). Briefly: Assessment of PI3KCA Kinase Activity.
PIK3CA (human), sequence (P42336 whole entry, looked up): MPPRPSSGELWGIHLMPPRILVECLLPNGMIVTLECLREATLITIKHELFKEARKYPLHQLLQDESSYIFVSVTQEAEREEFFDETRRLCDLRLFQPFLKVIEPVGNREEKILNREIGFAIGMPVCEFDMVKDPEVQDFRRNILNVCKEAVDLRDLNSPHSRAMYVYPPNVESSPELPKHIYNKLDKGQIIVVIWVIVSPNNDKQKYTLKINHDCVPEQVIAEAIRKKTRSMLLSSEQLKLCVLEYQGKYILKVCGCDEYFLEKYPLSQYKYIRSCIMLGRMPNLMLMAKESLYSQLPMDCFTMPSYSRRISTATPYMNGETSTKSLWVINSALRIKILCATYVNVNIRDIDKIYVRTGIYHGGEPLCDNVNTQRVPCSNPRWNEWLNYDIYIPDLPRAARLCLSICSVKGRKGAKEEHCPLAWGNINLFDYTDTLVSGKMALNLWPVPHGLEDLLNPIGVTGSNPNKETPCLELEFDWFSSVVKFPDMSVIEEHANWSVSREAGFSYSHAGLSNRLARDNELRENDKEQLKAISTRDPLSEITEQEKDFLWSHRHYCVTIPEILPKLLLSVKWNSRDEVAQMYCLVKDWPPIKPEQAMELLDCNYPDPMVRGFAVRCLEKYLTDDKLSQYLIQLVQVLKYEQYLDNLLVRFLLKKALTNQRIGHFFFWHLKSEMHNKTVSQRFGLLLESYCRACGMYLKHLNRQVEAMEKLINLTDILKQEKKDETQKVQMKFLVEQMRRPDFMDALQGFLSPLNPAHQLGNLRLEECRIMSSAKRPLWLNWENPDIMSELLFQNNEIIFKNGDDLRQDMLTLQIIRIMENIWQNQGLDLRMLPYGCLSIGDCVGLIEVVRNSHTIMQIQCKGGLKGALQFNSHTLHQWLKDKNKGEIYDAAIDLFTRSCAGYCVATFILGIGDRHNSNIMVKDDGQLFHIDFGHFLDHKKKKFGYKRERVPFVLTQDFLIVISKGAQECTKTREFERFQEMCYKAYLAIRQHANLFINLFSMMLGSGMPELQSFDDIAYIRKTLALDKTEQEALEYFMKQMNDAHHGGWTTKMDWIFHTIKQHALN
As a reminder, the pIC50 is −log10 of the IC50, conventionally taken in molar units. A higher pIC50 goes with a low IC50. Take `Cc1nn2ccc(OCCN3CCC(F)CC3)cc2c1-c1nc(-c2ccccc2)c(-c2nc[nH]n2)s1`: the negative logarithm of the IC50 (pIC50) was > 7.00. Then `COc1ccc(F)c(F)c1-c1nc(-c2c(C)nn3ccccc23)sc1-c1nc[nH]n1`, with 6.00 to 7.00; and `COc1cncc(-c2nc(-c3ccnc(NC(C)=O)c3)sc2-c2ncc[nH]2)c1`, with 6.00 to 7.00. For the molecule `Cc1n[nH]c(C)c1-c1nc(-c2c(C)nn3ccccc23)sc1-c1nc[nH]n1`, the pIC50 is > 7.00. Regarding `CC(=O)Nc1cc(-c2sc(-c3ncc[nH]3)c(-c3ccc(Cl)cc3Cl)c2C#N)ccn1`, the negative-log IC50 (pIC50) was > 7.00. In turn, `Cc1nn2ccccc2c1-c1nc(-c2cnn(CCN3CCOCC3)c2)c(-c2nc[nH]n2)s1` had a negative logarithm of the IC50 (pIC50) of 6.00 to 7.00. Take `Cc1nc2sccn2c1-c1nc(-c2ccccc2)c(-c2nnc[nH]2)s1`: the negative logarithm of the IC50 (pIC50) was > 7.00. On to `CCOc1nc(-c2ccnc(NC(=O)c3ccno3)c2)sc1-c1nnc[nH]1`, for which the pIC50 is > 7.00. On to `Cc1nn2ccccc2c1-c1nc(-c2cccs2)c(-c2nc[nH]n2)s1`, for which the pIC50 was > 7.00. `Cc1cc(-c2cc(-c3ccc(Cl)cc3Cl)c(-c3ncc[nH]3)s2)ccn1`: the negative logarithm of the IC50 (pIC50) is > 7.00. The result for `Cc1nn2ccc(OCCNC(=O)c3cn(C)cn3)cc2c1-c1nc(-c2ccccc2)c(-c2nc[nH]n2)s1` reads > 7.00; that for `CC(C)(C)OC(=O)Nc1cc(-c2sc(-c3ncc[nH]3)c(-c3ccc(Cl)cc3Cl)c2C#N)ccn1`, > 7.00; that for `CC(=O)Nc1cc(-c2nc(-c3ccccc3C)c(-c3ncc[nH]3)s2)ccn1`, > 7.00. The result for `Cc1nn2ccccc2c1-c1nc(-c2cnn(C)c2C)c(-c2nc[nH]n2)s1` reads > 7.00.

Take `Cc1nn2ccccc2c1-c1nc(-c2ccsc2)c(-c2nnc[nH]2)s1`: the pIC50 was > 7.00. In the case of `CC(=O)Nc1cc(-c2nc(-c3ccc(C(F)(F)F)cc3)c(-c3ncc[nH]3)s2)ccn1`, the pIC50 was > 7.00.

Consider `Cc1nn2ccccc2c1-c1nc(-c2cc(C=O)ccc2Cl)c(-c2nnc[nH]2)s1`, for which the negative-log IC50 (pIC50) is > 7.00.

`CC(=O)Nc1cc(-c2nc(-c3ccc(Cl)cc3Cl)c(-c3nc(C#N)c[nH]3)s2)ccn1` had a pIC50 of 6.00 to 7.00. The result for `Cc1nn2ccc(-c3cnn(C)c3)cc2c1-c1nc(-c2ccccc2)c(-c2nc[nH]n2)s1` reads > 7.00; that for `CCOc1cccc(F)c1-c1nc(-c2c(C)nn3ccccc23)sc1-c1nc[nH]n1`, 6.00 to 7.00; that for `Cc1nn2ccsc2c1-c1nc(-c2ccccc2)c(-c2nnn[nH]2)s1`, 6.00 to 7.00. The result for `Cc1nn2ccc(OCCN3CCN(C)C(=O)C3)cc2c1-c1nc(-c2ccccc2)c(-c2nc[nH]n2)s1` reads > 7.00. Consider `COCCCNc1nccc(-c2sc(-c3nnc[nH]3)c(-c3ccc(Cl)cc3Cl)c2C#N)n1`, for which the negative-log IC50 (pIC50) is > 7.00. Regarding `C=Cc1ccc2nc(C)c(-c3nc(-c4ccccc4)c(-c4nc[nH]n4)s3)n2c1`, the pIC50 is > 7.00.

`Cc1nn2ccsc2c1-c1nc(-c2nc[nH]n2)c(-c2ccccc2)s1`: the negative-log IC50 (pIC50) is 6.00 to 7.00. For the molecule `CC(=O)Nc1cc(-c2sc(-c3nnc(Br)[nH]3)c(-c3ccc(Cl)cc3Cl)c2C#N)ccn1`, the pIC50 is > 7.00. `CNc1cc(-c2sc(-c3nccn3C)c(-c3ccc(Cl)cc3Cl)c2C#N)ccn1` gave a pIC50 of 6.00 to 7.00.

As to `N#Cc1c(-c2ccnc(N)c2)sc(-c2nnc[nH]2)c1-c1ccc(Cl)cc1Cl`, the pIC50 is > 7.00.

As for `Cc1nn2ccc(N3CCOCC3)cc2c1-c1nc(-c2ccccc2)c(-c2nc[nH]n2)s1`, the pIC50 is > 7.00. Consider `Cc1nn2ccccc2c1-c1cc(-c2ccc(Cl)cc2Cl)c(-c2ncc[nH]2)s1`, for which the negative logarithm of the IC50 (pIC50) was > 7.00. As to `CNC(=O)Nc1cc(-c2sc(-c3ncc[nH]3)c(-c3ccc(Cl)cc3Cl)c2C#N)ccn1`, the pIC50 was > 7.00. In the case of `CCOC(=O)Nc1cc(-c2nc(OCC)c(-c3nc[nH]n3)s2)ccn1`, the negative-log IC50 (pIC50) was > 7.00.

For `Cc1nn2ccc(OCCN3CCNC(=O)C3)cc2c1-c1nc(-c2ccccc2)c(-c2nc[nH]n2)s1`, the pIC50 is > 7.00. For the molecule `Cc1nn2ccc(OCCN3CCOCC3)cc2c1-c1nc(-c2ccccc2)c(-c2nnc[nH]2)s1`, the negative-log IC50 (pIC50) is > 7.00.

With `Cc1nc2ccc(C(O)CO)cn2c1-c1nc(-c2ccccc2)c(-c2nnc[nH]2)s1` (stereo unspecified), the negative-log IC50 (pIC50) is > 7.00. For `Clc1ccc(-c2nc(-c3ccnc4[nH]ccc34)sc2-c2ncc[nH]2)c(Cl)c1`, the pIC50 was > 7.00.

Molecule `CC(C)(C)OC(=O)Nc1cc(-c2sc(-c3nnc[nH]3)c(-c3ccc(Cl)cc3Cl)c2C#N)ccn1` had a pIC50 of 6.00 to 7.00. Molecule `N#Cc1c(-c2ccnc(N)c2)sc(-c2ccn[nH]2)c1-c1ccc(Cl)cc1Cl` gave a negative logarithm of the IC50 (pIC50) of 6.00 to 7.00. Molecule `CCOc1nc(-c2ccnc(NC(=O)Cc3ccccc3)c2)sc1-c1nnc[nH]1` had a pIC50 of 6.00 to 7.00. The result for `CCCOc1nc(-c2c(C)nn3ccccc23)sc1-c1nnc[nH]1` reads > 7.00. As for `CC(=O)Nc1cc(-c2nc(-c3cc(C(=O)N4CCCC4)ccc3F)c(-c3ncc[nH]3)s2)ccn1`, the pIC50 was 6.00 to 7.00. `CCOc1nc(-c2ccnc(NC(=O)c3cc(C)on3)c2)sc1-c1nnc[nH]1` had a pIC50 of 6.00 to 7.00. The result for `CCOc1nc(-c2ccnc(NC(=O)CCc3ccccc3)c2)sc1-c1nnc[nH]1` reads > 7.00. As for `c1ccc(-c2nc(-c3cnn4ccccc34)sc2-c2nnc[nH]2)cc1`, the negative logarithm of the IC50 (pIC50) was 6.00 to 7.00. The molecule `N#Cc1c(-c2cc(N)nc(F)c2)sc(-c2nnc[nH]2)c1-c1ccc(Cl)cc1Cl` showed a pIC50 of 6.00 to 7.00. Regarding `CC(C)CC(=O)Nc1cc(-c2sc(-c3ncc[nH]3)c(-c3ccc(Cl)cc3Cl)c2C#N)ccn1`, the negative logarithm of the IC50 (pIC50) was > 7.00. `CC(=O)Nc1cc(-c2nc(Br)c(-c3ncc[nH]3)s2)ccn1` showed a negative-log IC50 (pIC50) of 6.00 to 7.00. For the molecule `CCOc1nc(-c2c(C)nn3ccccc23)sc1-c1nnc[nH]1`, the pIC50 was > 7.00.

For the molecule `N#Cc1c(-c2ccncc2)sc(-c2nnc[nH]2)c1-c1ccc(Cl)cc1Cl`, the pIC50 is 6.00 to 7.00.

In the case of `COc1ccccc1-c1nc(-c2c(C)nn3ccccc23)sc1-c1nnc[nH]1`, the negative-log IC50 (pIC50) is > 7.00. For the molecule `Cc1nn2ccsc2c1-c1nc(OCc2ccccc2)c(-c2nnc[nH]2)s1`, the pIC50 was > 7.00. With `Cc1nn2ccsc2c1-c1nc(-c2ccc(F)c(F)c2)c(-c2nnc[nH]2)s1`, the pIC50 is > 7.00. In turn, `CC(=O)Nc1cc(-c2sc(-c3nnc[nH]3)c(-c3ccc(Cl)cc3Cl)c2C#N)c(F)cn1` showed a pIC50 of 6.00 to 7.00.

Take `Cc1cc(C(=O)Nc2cc(-c3sc(-c4nnc[nH]4)c(-c4ccc(Cl)cc4Cl)c3C#N)ccn2)no1`: the negative logarithm of the IC50 (pIC50) was 6.00 to 7.00. On to `Cc1nn2ccsc2c1-c1nc(-c2ccccc2)c(-c2nnc[nH]2)s1`, for which the pIC50 was > 7.00. In the case of `O=C(Nc1cc(-c2nc(-c3ccccc3)c(-c3nnc[nH]3)s2)ccn1)C1CC1`, the negative logarithm of the IC50 (pIC50) was > 7.00. On to `Cc1nc2ccc(CN3CC[C@H](N)C3)cn2c1-c1nc(-c2ccccc2)c(-c2nnc[nH]2)s1`, for which the pIC50 is > 7.00.

As for `COC(=O)Nc1cc(-c2nc(-c3ccc(Cl)cc3Cl)c(-c3nnc(N)[nH]3)s2)ccn1`, the pIC50 was > 7.00. For `CC(=O)Nc1cc(-c2nc(-c3cccc(C(F)(F)F)c3)c(-c3ncc[nH]3)s2)ccn1`, the pIC50 was 6.00 to 7.00. `Cc1ccc(-c2nc(-c3c(C)nn4ccccc34)sc2-c2nc[nH]n2)o1`: the pIC50 is > 7.00. Molecule `CCOc1nc(-c2ccnc(NC(=O)CC(C)C)c2)sc1-c1nnc[nH]1` had a pIC50 of 6.00 to 7.00. As for `CC(=O)Nc1cc(-c2sc(-c3cnc[nH]3)c(-c3ccc(Cl)cc3Cl)c2C#N)ccn1`, the negative-log IC50 (pIC50) was > 7.00. Regarding `Cc1nc2ccc(C3CCCCC3)cn2c1-c1nc(-c2ccccc2)c(-c2nc[nH]n2)s1`, the pIC50 was 6.00 to 7.00. For `CC(=O)Nc1cc(-c2nc(-c3ccccc3)c(-c3ncc[nH]3)s2)ccn1`, the pIC50 was 6.00 to 7.00. `CCOc1nc(-c2ccnc(NC(=O)c3cccc(OC)c3)c2)sc1-c1nnc[nH]1` had a pIC50 of 6.00 to 7.00. For the molecule `Cc1nn2ccccc2c1-c1nc(-c2cccc(C(F)(F)F)c2)c(-c2nc[nH]n2)s1`, the pIC50 was 6.00 to 7.00. In the case of `CCNc1nccc(-c2sc(-c3nnc[nH]3)c(-c3ccc(Cl)cc3Cl)c2C#N)n1`, the pIC50 was > 7.00. Take `CC(=O)Nc1cc(-c2nc(-c3c(C)cccc3C)c(-c3nnc[nH]3)s2)ccn1`: the pIC50 was 6.00 to 7.00. The molecule `CC(=O)Nc1cc(-c2nc(-c3cccc(OC(F)(F)F)c3)c(-c3ncc[nH]3)s2)ccn1` showed a negative logarithm of the IC50 (pIC50) of 6.00 to 7.00. As to `N#Cc1c(-c2ccnc(NC(=O)C3CCC3)c2)sc(-c2nnc[nH]2)c1-c1ccc(Cl)cc1Cl`, the pIC50 was 6.00 to 7.00. In the case of `N#Cc1c(-c2ccnc(N)n2)sc(-c2nnc[nH]2)c1-c1ccc(Cl)cc1Cl`, the pIC50 is > 7.00. On to `Cc1nn2ccc(OCCN3CCN(S(C)(=O)=O)CC3)cc2c1-c1nc(-c2ccccc2)c(-c2nc[nH]n2)s1`, for which the pIC50 is > 7.00. Regarding `Cc1nn2ccccc2c1-c1nc(-c2cnc3ccccc3c2)c(-c2nc[nH]n2)s1`, the pIC50 was > 7.00.

Take `COc1ccc(-c2nc(-c3c(C)nn4ccccc34)sc2-c2nc[nH]n2)c(OC)c1`: the negative logarithm of the IC50 (pIC50) was > 7.00. In turn, `CCNc1cc(-c2nc(-c3cc(CCN)ccc3Cl)c(-c3ncc[nH]3)s2)ccn1` had a pIC50 of 6.00 to 7.00. For the molecule `CC(=O)N1CCC(Oc2ccn3nc(C)c(-c4nc(-c5ccccc5)c(-c5nc[nH]n5)s4)c3c2)CC1`, the negative logarithm of the IC50 (pIC50) was > 7.00. `Clc1ccc(-c2cc(-c3ccnc4ccccc34)sc2-c2ncc[nH]2)c(Cl)c1`: the pIC50 was 6.00 to 7.00.

With `CCC(=O)Nc1cc(-c2sc(-c3nnc[nH]3)c(-c3ccc(Cl)cc3Cl)c2C#N)ccn1`, the negative logarithm of the IC50 (pIC50) is > 7.00.

In the case of `Cc1nn2ccccc2c1-c1nc(-c2ccc(N3CCNCC3)nc2)c(-c2nc[nH]n2)s1`, the pIC50 was 6.00 to 7.00.

Molecule `N#Cc1c(-c2nc(N)ncc2Cl)sc(-c2nnc[nH]2)c1-c1ccc(Cl)cc1Cl` showed a negative-log IC50 (pIC50) of 6.00 to 7.00. `Cc1nc2ccc(CNCCCN)cn2c1-c1nc(-c2ccccc2)c(-c2nnc[nH]2)s1`: the negative logarithm of the IC50 (pIC50) was > 7.00. Then `Cc1nn2ccccc2c1-c1nc(-c2ccc(F)cc2)c(-c2nnc[nH]2)s1`, with > 7.00. For `CCOc1nc(-c2ccnc(NC(=O)COc3ccccc3)c2)sc1-c1nnc[nH]1`, the negative-log IC50 (pIC50) is 6.00 to 7.00. As for `Cc1nn2ccsc2c1-c1nc(-c2ccccc2)c(-c2ccn[nH]2)s1`, the pIC50 was > 7.00. As for `Cc1nc2ccc(CN3CCNCC3)cn2c1-c1nc(-c2ccccc2)c(-c2nnc[nH]2)s1`, the pIC50 is > 7.00. Then `CC(=O)Nc1cc(-c2cc(-c3ccc(Cl)cc3Cl)c(-c3ncc[nH]3)s2)ncn1`, with > 7.00.
